Assay results as given in patent US20050239764A1, “Zinc pyrrolidonecarboxylate dihydrate and method of producing the same” (Ajinomoto Co., Inc., priority 2004, published 2005).

Settings: dihydrate; for transmittance (T %) of 10 g/dl aqueous solution: 4 g dissolved in water to 40 ml, kept at 25° C. for one day, stirred 1 min, 550 nm, optical path 10 mm, 25° C.; for liquid of 10 g/dl aqueous solution: evaluation grade of dissolution state from transmittance at 550 nm, 10 mm path
Experimental: Apparatus: Spectrophotometer V-570 (JAS. CO)
Spectrophotometer (UV/VIS/NIR)
measure wavelength: 550 nm
band width (near infrared): 8.0 nm
repeating interval: 3 sec.
measure cell: quartz glass cell T-1-UV-10 manufactured by TOSOH Quartz Co.
(Optical path width: 10 mm, outside width; 12.5 mm, height; 45 mm)
measure temperature: 25° C.(R.T.)
1) Stabilization of value was performed, thereby starting setting until 2 hours before measuring.
2) Determination of measuring program: Fixed Wavelength program was selected, and then initialization of wavelength was performed.
3) Injecting ion exchange water (about 3 ml) into each of blank cell and sample cell, setting on photometer, correcting zero point, and then determining a blank (Completion of measuring preparation).
RIKEN KOGYO INC., Magmix Stirrer) at 3 of speed range, and then the solution (3 ml) was injected into measuring cell immediately.
5) The cell was equipped photometer immediately after confirming absence of bubble in the cell.
6) After setting, the cell was stood for 1 min, and then subjected to measurement.
7) The transmittance (% T) is the value measured with photometer.
Under the above conditions, the transmittance was obtained accurately although measuring sample comprised insoluble material, because insoluble material was dispersed uniformly in the whole cell.

Substance	transmittance (T %) of 10 g/dl aqueous solution [%]	liquid of 10 g/dl aqueous solution
zinc pyrrolidonecarboxylate dihydrate [Com. Ex. 2, reference compound]	30.6	–
zinc pyrrolidonecarboxylate dihydrate [Ex. 7]	95.7	–
zinc pyrrolidonecarboxylate dihydrate [Ex. 4]	97.6	⊚
zinc pyrrolidonecarboxylate dihydrate [Ex. 3]	96.9	◯
zinc pyrrolidonecarboxylate dihydrate [Com. Ex. 3, reference compound]	60.3	–
zinc pyrrolidonecarboxylate dihydrate [Ex. 5]	97.9	⊚

Continued, values first:

transmittance (T %) of 10 g/dl aqueous solution [%]	liquid of 10 g/dl aqueous solution	Substance
97.6	⊚	zinc pyrrolidonecarboxylate dihydrate [Ex. 2]
19.9	–	zinc pyrrolidonecarboxylate dihydrate [Com. Ex. 4, reference compound]
96.6	◯	zinc pyrrolidonecarboxylate dihydrate [Ex. 1]
17.5	–	zinc pyrrolidonecarboxylate dihydrate [Com. Ex. 1, reference compound]
86.1	Δ (Δ: 93-85%)	zinc pyrrolidonecarboxylate dihydrate [Ex. 6]
